Results reported in US20140274990A1, “CEFTOLOZANE PHARMACEUTICAL COMPOSITIONS” (Cubist Pharmaceuticals, Inc., priority 2013, published 2014).

Experiment: stability testing of initial lyophilized ceftolozane pharmaceutical compositions, HPLC
Type: physicochemical
Conditions: certain lyophilized pharmaceutical compositions initially evaluated for intravenous administration
Description: As disclosed herein, ceftolozane was unstable in certain lyophilized pharmaceutical compositions initially evaluated for intravenous administration. In particular, a decrease in ceftolozane purity and the formation of multiple additional related substances were detected in certain initial ceftolozane pharmaceutical compositions by peaks in […] (HPLC) after stability testing. This testing pointed to the need to develop novel ceftolozane formulations providing increased ceftolozane stability. […] Nor does this disclosure provide guidance on the formation of ceftolozane pharmaceutical compositions to increase ceftolozane purity during stability testing or control the relative amounts of ceftolozane related substances detected by HPLC peak formation during stability testing.

- ceftolozane stability in lyophilized composition: unstable
Structure (SMILES): Cn1c(N)c(NC(=O)NCCN)c[n+]1CC1=C(C(=O)O)N2C(=O)[C@@H](NC(=O)/C(=N\OC(C)(C)C(=O)[O-])c3nsc(N)n3)[C@H]2SC1 [ceftolozane, (6R,7R)-3-[(5-amino-4-{[(2-aminoethyl)carbamoyl]amino}-1-methyl-1H-pyrazol-2-ium-2-yl)methyl]-7-({(2Z)-2-(5-amino-1,2,4-thiadiazol-3-yl)-2-[(1-carboxy-1-methylethoxy)imino]acetyl}amino)-8-oxo-5-thia-1-azabicyclo[4.2.0]oct-2-ene-2-carboxylate]
